Source: article PMC10507085, “Pharmacological inhibition of TBK1/IKKε blunts immunopathology in a murine model of SARS-CoV-2 infection” (Nature Communications, 2023)

Experiments:
Assay in all cases: biochemical
Design in all cases: KINOMEscan competition binding, DNA-tagged kinase against immobilised ligand, qPCR read-out
Details in all cases: read-out: Percent Control
ABL1-phosphorylated = biological target: T1, ABL1-phosphorylated (Homo sapiens, UniProt P00519)
T1 construct: phosphorylated

BRSK2 = BRSK2 (Homo sapiens, UniProt Q8IWQ3)
CDK14 = CDK14 (Homo sapiens, UniProt O94921)
CSNK1G2 = CSNK1G2 (Homo sapiens, UniProt P78368)
Sequence of CSNK1G2 (P78368 whole entry): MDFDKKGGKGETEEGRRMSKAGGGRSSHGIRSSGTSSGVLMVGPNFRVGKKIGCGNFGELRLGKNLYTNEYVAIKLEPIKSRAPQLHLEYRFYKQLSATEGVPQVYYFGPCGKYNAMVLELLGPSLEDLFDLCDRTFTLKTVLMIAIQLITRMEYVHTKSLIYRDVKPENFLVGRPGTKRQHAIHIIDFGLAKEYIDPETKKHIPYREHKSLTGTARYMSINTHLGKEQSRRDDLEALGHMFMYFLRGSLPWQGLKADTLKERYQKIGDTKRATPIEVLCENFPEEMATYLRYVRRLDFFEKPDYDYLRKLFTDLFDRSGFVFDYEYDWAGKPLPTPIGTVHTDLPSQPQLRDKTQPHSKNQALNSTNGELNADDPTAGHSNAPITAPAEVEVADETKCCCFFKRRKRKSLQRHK

DDR2 = DDR2 (Homo sapiens, UniProt Q16832)
DMPK = DMPK (Homo sapiens, UniProt Q09013)
Sequence of DMPK (Q09013 whole entry): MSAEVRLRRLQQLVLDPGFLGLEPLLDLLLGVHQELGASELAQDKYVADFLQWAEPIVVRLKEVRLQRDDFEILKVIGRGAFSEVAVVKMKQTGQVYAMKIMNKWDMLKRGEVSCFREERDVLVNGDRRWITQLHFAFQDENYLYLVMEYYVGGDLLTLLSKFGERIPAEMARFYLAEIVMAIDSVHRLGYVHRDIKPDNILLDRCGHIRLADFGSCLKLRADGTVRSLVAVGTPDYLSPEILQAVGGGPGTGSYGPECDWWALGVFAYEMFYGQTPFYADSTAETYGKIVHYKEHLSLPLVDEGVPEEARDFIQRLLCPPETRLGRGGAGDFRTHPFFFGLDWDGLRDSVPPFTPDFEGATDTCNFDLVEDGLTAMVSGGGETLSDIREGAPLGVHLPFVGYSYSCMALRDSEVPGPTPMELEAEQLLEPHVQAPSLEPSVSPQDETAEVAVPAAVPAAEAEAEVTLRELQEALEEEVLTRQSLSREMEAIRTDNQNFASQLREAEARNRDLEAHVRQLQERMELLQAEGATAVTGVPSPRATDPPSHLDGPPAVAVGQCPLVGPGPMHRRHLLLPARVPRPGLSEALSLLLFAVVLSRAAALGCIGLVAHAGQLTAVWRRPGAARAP

EPHA7 = EPHA7 (Homo sapiens, UniProt Q15375)
FGR = FGR (Homo sapiens, UniProt P09769)
LIMK2 = LIMK2 (Homo sapiens, UniProt P53671)
Sequence of LIMK2 (P53671 whole entry): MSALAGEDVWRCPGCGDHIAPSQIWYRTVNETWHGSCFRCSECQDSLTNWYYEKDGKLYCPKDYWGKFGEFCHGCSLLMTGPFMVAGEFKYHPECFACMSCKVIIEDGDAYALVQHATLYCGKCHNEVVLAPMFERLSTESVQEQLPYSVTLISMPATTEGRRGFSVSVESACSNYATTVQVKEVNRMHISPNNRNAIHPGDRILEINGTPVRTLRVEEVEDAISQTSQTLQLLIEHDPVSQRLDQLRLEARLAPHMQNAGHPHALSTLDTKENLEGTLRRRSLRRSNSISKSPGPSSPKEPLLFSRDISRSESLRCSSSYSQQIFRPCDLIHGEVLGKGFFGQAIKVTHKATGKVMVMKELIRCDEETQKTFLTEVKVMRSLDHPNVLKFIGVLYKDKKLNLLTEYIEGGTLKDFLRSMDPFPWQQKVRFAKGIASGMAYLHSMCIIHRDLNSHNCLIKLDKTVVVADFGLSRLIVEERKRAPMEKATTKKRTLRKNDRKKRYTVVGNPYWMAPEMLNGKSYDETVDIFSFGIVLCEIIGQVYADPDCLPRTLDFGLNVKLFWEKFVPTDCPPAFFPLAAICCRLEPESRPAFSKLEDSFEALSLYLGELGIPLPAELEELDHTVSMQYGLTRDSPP

MAPK1 = MAPK1 (Homo sapiens, UniProt P28482)
MAPK7 = MAPK7 (Homo sapiens, UniProt Q13164)
MGC42105 = biological target: T2, MGC42105 (Homo sapiens, UniProt Q8IY84)
T2 construct: gene NIM1K
T2 sequence (Q8IY84 whole entry): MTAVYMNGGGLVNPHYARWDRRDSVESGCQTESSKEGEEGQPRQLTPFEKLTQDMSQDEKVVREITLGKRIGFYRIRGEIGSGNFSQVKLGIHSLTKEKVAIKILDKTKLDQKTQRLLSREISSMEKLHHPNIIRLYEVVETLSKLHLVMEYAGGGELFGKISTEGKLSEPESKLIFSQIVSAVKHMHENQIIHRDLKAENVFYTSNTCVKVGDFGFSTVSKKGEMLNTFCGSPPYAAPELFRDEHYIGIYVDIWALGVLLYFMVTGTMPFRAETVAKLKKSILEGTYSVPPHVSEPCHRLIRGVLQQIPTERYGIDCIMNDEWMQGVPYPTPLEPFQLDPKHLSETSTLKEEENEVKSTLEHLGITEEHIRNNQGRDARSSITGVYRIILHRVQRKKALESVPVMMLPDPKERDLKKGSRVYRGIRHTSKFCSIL

MYLK = MYLK (Homo sapiens, UniProt Q15746)
NLK = NLK (Homo sapiens, UniProt Q9UBE8)
Sequence of NLK (Q9UBE8 whole entry): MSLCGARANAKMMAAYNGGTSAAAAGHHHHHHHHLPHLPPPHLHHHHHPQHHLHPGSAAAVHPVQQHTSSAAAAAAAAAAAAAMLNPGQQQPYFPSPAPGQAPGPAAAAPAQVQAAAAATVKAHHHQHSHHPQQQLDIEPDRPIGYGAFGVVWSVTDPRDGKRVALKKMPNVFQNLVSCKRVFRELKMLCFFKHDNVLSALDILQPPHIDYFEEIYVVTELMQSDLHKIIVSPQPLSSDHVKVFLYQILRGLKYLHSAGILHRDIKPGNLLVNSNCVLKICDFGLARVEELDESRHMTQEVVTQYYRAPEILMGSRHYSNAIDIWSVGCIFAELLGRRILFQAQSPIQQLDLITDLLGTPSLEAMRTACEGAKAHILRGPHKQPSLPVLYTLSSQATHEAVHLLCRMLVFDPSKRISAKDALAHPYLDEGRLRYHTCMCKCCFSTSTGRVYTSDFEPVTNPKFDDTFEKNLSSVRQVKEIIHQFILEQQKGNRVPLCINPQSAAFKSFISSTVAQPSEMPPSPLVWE

NTRK2 = NTRK2 (Homo sapiens, UniProt Q16620)
PKN1 = PKN1 (Homo sapiens, UniProt Q16512)
Sequence of PKN1 (Q16512 whole entry): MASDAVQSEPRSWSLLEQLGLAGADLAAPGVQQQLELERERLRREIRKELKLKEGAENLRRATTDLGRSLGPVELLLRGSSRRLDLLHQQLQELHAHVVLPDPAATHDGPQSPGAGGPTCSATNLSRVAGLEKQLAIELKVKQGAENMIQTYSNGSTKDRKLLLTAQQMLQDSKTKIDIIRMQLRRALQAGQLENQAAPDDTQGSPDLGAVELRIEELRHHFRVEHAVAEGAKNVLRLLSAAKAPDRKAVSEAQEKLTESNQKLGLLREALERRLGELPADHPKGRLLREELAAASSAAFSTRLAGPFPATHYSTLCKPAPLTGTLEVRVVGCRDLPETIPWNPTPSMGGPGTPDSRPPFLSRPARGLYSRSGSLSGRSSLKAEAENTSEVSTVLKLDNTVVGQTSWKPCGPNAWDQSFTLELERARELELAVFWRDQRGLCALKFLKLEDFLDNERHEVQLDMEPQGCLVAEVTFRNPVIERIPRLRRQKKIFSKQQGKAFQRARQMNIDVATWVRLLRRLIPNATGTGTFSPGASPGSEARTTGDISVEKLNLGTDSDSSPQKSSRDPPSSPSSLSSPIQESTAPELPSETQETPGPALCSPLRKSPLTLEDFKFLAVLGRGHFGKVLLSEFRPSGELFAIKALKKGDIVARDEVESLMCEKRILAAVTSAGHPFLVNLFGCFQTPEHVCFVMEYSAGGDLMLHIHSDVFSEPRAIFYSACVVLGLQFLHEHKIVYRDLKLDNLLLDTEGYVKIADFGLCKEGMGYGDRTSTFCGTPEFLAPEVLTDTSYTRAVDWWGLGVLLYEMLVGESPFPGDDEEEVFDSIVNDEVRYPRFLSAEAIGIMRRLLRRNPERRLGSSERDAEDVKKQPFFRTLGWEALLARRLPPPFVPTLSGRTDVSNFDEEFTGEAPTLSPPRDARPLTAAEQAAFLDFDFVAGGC

SRPK1 = SRPK1 (Homo sapiens, UniProt Q96SB4)
TEK = TEK (Homo sapiens, UniProt Q02763)
Sequence of TEK (Q02763 whole entry): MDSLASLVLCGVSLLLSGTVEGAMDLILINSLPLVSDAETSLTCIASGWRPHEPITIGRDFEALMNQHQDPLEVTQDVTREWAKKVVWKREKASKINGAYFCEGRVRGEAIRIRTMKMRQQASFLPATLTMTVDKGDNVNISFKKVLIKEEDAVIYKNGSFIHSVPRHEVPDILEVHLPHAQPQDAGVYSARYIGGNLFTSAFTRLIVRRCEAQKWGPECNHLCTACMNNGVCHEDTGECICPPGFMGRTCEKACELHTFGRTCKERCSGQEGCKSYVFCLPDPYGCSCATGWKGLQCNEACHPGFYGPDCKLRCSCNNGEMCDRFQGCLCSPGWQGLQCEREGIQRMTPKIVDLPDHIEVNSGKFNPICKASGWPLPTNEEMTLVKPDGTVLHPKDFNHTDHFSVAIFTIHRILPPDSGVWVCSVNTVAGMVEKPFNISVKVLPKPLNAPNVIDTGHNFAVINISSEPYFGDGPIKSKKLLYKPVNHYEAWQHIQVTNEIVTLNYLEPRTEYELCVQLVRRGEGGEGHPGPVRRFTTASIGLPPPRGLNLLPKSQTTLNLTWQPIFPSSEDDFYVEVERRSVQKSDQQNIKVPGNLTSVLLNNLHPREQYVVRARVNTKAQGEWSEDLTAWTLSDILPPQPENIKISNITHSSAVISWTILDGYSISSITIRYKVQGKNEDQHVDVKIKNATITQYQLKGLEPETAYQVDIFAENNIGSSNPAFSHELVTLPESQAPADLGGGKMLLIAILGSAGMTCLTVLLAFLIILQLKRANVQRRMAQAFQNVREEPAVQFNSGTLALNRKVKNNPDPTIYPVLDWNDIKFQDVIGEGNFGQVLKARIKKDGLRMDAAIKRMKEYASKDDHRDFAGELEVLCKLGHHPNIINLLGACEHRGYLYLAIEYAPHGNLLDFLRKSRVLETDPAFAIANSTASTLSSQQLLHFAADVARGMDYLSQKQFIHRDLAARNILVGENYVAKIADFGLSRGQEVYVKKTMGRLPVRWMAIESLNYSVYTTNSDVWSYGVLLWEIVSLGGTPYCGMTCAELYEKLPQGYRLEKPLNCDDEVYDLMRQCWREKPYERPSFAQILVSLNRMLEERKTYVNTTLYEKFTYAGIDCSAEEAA

WNK4 = WNK4 (Homo sapiens, UniProt Q96J92)
ZAK = biological target: T3, ZAK (Homo sapiens, UniProt Q9NYL2)
T3 construct: gene MAP3K20

Compound `Oc1ccc(C2=Cc3ccc(O)cc3OC2)cc1` [compound 1, idronoxil] has a remaining binding at 10 µM (ABL1-phosphorylated) of 35%, a remaining binding at 10 µM (BRSK2) of 84% and a remaining binding at 10 µM (CDK14) of 95%. For the same compound, the remaining binding at 10 µM (CSNK1G2) was 82%, the remaining binding at 10 µM (DDR2) was 100% and the remaining binding at 10 µM (DMPK) was 92%. For the same compound, the remaining binding at 10 µM (EPHA7) was 96%, the remaining binding at 10 µM (FGR) was 74% and the remaining binding at 10 µM (LIMK2) was 90%. For the same compound, the remaining binding at 10 µM (MAPK1) was 100%, the remaining binding at 10 µM (MAPK7) was 90% and the remaining binding at 10 µM (MGC42105) was 93%. The remaining binding at 10 µM (MYLK) was 52%, the remaining binding at 10 µM (NLK) was 67% and the remaining binding at 10 µM (NTRK2) was 62%. It also gave a remaining binding at 10 µM (PKN1) of 66%, a remaining binding at 10 µM (SRPK1) of 100% and a remaining binding at 10 µM (TEK) of 96%. It also gave a remaining binding at 10 µM (WNK4) of 95% and a remaining binding at 10 µM (ZAK) of 54%.
